Read-outs that look alike come from different tables or passages of the source.
Tests used:
rabbit aorta = assay: Relaxing effect on isolated rabbit aorta contracted (depolarized) by KCl; settings: Oryctolagus cuniculus, read-out: ED50 (dose causing a 50% relaxation of the precontracted arteries)
Experimental: I. RELAXING EFFECT ON ISOLATED RABBIT AORTA CONTRACTED BY KCl
The thoracic aortae of male rabbits are removed, cut into narrow strips and placed under tension in an oxygenated survival medium. The contractions of these arteries, the amplitude of which is measured using a myograph, are induced by a 127 mM solution of KCl [R. Towart et al., Arzneim.-Forsch./Drug Res. 32, 338-346 (1982)]. The compounds studied are dissolved in a mixture of anhydrous ethanol and double distilled water (1:1) v/v, the percentage of ethanol in the baths being less than or equal to 0.3% at the end of the experiment. When the contraction plateau is reached, the compound is added to the medium in increasing doses every 15 minutes.

[1] = system: spontaneously hypertensive rats; assay: Antihypertensive activity in spontaneously hypertensive rats, oral administration; type: in vivo; settings: for change in vivo at 30 mg/kg / change in vivo at 10 mg/kg: Rattus norvegicus
Experimental: Spontaneously hypertensive rats aged between 16 and 20 weeks are used. The systolic pressure is measured by plethysmography and the heart rate is obtained from the pressure graph. The compounds studied are administered orally.

in vivo = settings: rat, intravenous, male Wistar rats weighing 300 g
Experimental: The LD50 was determined by intravenous administration to male Wistar rats weighing 300 g.

[2] = system: spontaneously hypertensive rats; assay: Antihypertensive activity in spontaneously hypertensive rats, intravenous administration; type: in vivo; settings: single i.v. dose; Ex. 2 30, Ex. 7 100, Ex. 8 300, Ex. 11 30 and 100 μg/kg; versus nicardipine and nifedipine
Source text: 2. Intravenous administration
Spontaneously hypertensive rats aged between 16 and 20 weeks are used. They are anesthetized with diethyl ether, a cannula is inserted into the caudal artery to measure the arterial pressure and a catheter is inserted into the right jugular vein to administer the compounds as described previously (L. S. Watson and L. T. Ludden, New Antihypertensive Drugs, pages 87-96, Spectrum Publication, Inc., 1976).
Each curve C relates to the control group receiving only the vehicle and each curve T relates to the treated group [n (number of animals per group)=4-7]. The said groups are compared either by analysis of variance, if the variances are homogenous (Bartlett's homocedasticity test), or by Kruskall-Wallis's non-parametric test (the statistically significant results being represented as follows:
FIGS. 1-6 relate to the variation in systolic pressure, expressed in mm Hg (1 mm Hg corresponds approximately to 1.333×10^2 Pa), as a function of time, expressed in minutes, and FIGS. 1a-6a relate to the variation in diastolic pressure, also expressed in mm Hg, as a function of time, expressed in minutes, for the treated groups (curves T) compared with the corresponding control groups (curves C), the doses of products administered being as follows:
FIGS. 2 and 2a: nicardipine at 30 μg/kg i.v.,
FIGS. 3 and 3a: Example 2 at 30 μg/kg i.v.,
FIGS. 4 and 4a: Example 7 at 100 μg/kg i.v.,
FIGS. 5 and 5a: Example 8 at 300 μg/kg i.v., and
FIGS. 6 and 6a: Example 11 at 30 and 100 μg/kg i.v. (curves T1 and T2).

anesthetized dogs = assay: Hemodynamic effects on anesthetized dogs, intraduodenal administration; type: in vivo, Mongrel dogs; settings: for % variation T.P.R. (total peripheral resistances) / duration of the effect, T.P.R. (total peripheral resistances): calculated
Experimental: III. HEMODYNAMIC EFFECTS ON ANESTHETIZED DOGS Mongrel dogs are anesthetized with pentobarbital sodium (25 mg/kg i.v.). Each animal is placed under artificial respiration and a catheter is introduced into the aorta to measure the arterial pressure. The outputs of the aorta (O. Aor.), right femoral artery (O. Fem.) and left coronary artery (descending part) (O. Cor.) are measured continuously by means of electromagnetic rings. The total peripheral resistances (T.P.R.) are also calculated. […]

[3] = rabbit aorta depolarized by 127 mM KCl
[4] = 30 mg/kg, read-out: % variation Heart rate
[5] = 30 mg/kg, read-out: % variation Systolic pressure
[6] = 0.5 mg/kg, versus nicardipine and nifedipine

Compound | EC50 (rabbit aorta; [3]) | change in vivo at 30 mg/kg [1, 4] | change in vivo at 30 mg/kg [1, 5] | LD50 (in vivo) | duration of the effect, Systolic pressure ([1]; 30 mg/kg) | other results
COC(=O)C1=C(C)NC(C)=C(C(=O)OCC2CSC(C)(C)O2)C1c1cccc([N+](=O)[O-])c1 (racemic) [Example 6] | 35 nM | 21.4% | -35.1 ± 9.2% | 34.2 mg/kg |  | 
COC(=O)C1=C(C)NC(C)=C(C(=O)OCC2COC(C)(c3ccccc3)O2)C1c1cccc([N+](=O)[O-])c1 (racemic) [Example 7] |  | 36.4% | -40.5 ± 5.1% | 17.8 mg/kg | > 24 h | duration of the antihypertensive effect (in words) [2]: notably longer than that of nicardipine and nifedipine
COC(=O)C1=C(C)NC(C)=C(C(=O)OC)C1c1ccccc1[N+](=O)[O-] [nifedipine, dimethyl 1,4-dihydro-2,6-dimethyl-4-(2-nitrophenyl)pyridine-3,5-dicarboxylate, reference compound] |  | 35.4% | -35.2 ± 4.7% |  |  | EC50 (rabbit aorta): 22 nM; % variation D.P. (diastolic pressure) (anesthetized dogs; 0.35 mg/kg): -44.2%; % variation O. Aor. (output of the aorta) (anesthetized dogs; 0.35 mg/kg): +20.5%; % variation O. Cor. (output of left coronary artery) (anesthetized dogs; 0.35 mg/kg): +66.4%; % variation O. Fem. (output of right femoral artery) (anesthetized dogs; 0.35 mg/kg): +76.4%; duration of the effect, D.P. (diastolic pressure) (anesthetized dogs; 0.35 mg/kg): 240 min; duration of the effect, O. Fem. (output of right femoral artery) (anesthetized dogs; 0.35 mg/kg): 10 min; % variation T.P.R. (total peripheral resistances) (anesthetized dogs; 0.35 mg/kg): -48.6%; duration of the effect, T.P.R. (total peripheral resistances) (anesthetized dogs; 0.35 mg/kg): 180 min
COC(=O)C1=C(C)NC(C)=C(C(=O)OCC2COC3(CCCC3)O2)C1c1cccc([N+](=O)[O-])c1 (centres unmarked) [Example 5, methyl (1,4-dioxaspiro[4,4]nonan-2-yl)methyl 1,4-dihydro-2,6-dimethyl-4-(3-nitrophenyl)pyridine-3,5-dicarboxylate] |  | 19.3% | -40.4 ± 9.4% |  |  | duration of the effect, Heart rate ([1]; 30 mg/kg): 4 h
COC(=O)C1=C(C)NC(C)=C(C(=O)OCC2COC(c3ccccc3)(c3ccccc3)O2)C1c1cccc([N+](=O)[O-])c1 (racemic) [Example 8] | > 5000 nM | 12.4% | -37 ± 9% | 44.4 mg/kg | > 24 h | duration of the antihypertensive effect (in words) [2]: notably longer than that of nicardipine and nifedipine
COC(=O)C1=C(C)NC(C)=C(C(=O)OCC2COC(c3ccccc3)(C(F)(F)F)O2)C1c1cccc([N+](=O)[O-])c1 (centres unmarked) [Example 12] | 5000 nM |  |  |  |  | duration of the effect, Systolic pressure ([1]; 10 mg/kg): > 24 h; change in vivo at 10 mg/kg ([1]; 10 mg/kg, read-out: % variation Heart rate): 31.2%; change in vivo at 10 mg/kg ([1]; 10 mg/kg, read-out: % variation Systolic pressure): -41.4 ± 10%
COC(=O)C1=C(C)NC(C)=C(C(=O)OCC2COC(C)(c3ccc(Cl)cc3Cl)O2)C1c1cccc([N+](=O)[O-])c1 (racemic) [Example 11] | > 5000 nM | 34% | -54 ± 5.9% | 38.9 mg/kg | > 24 h | duration of the antihypertensive effect (in words) [2]: notably longer than that of nicardipine and nifedipine
COC(=O)C1=C(C)NC(C)=C(C(=O)OCCN(C)Cc2ccccc2)C1c1cccc([N+](=O)[O-])c1 (centres unmarked) [nicardipine, methyl 2-(N-methyl-N-benzylamino)ethyl 1,4-dihydro-2,6-dimethyl-4-(3-nitrophenyl)pyridine-3,5-dicarboxylate, reference compound] | 26 nM | 21.3% | -46.2 ± 6.8% | 11.8 mg/kg |  | % variation D.P. (diastolic pressure) (anesthetized dogs; 0.5 mg/kg): -34.5%; % variation O. Aor. (output of the aorta) (anesthetized dogs; 0.5 mg/kg): +25%; % variation O. Cor. (output of left coronary artery) (anesthetized dogs; 0.5 mg/kg): +62.2%; % variation O. Fem. (output of right femoral artery) (anesthetized dogs; 0.5 mg/kg): +70.6%; duration of the effect, D.P. (diastolic pressure) (anesthetized dogs; 0.5 mg/kg): 150 min; % variation T.P.R. (total peripheral resistances) (anesthetized dogs; 0.5 mg/kg): -40.5%; duration of the effect, T.P.R. (total peripheral resistances) (anesthetized dogs; 0.5 mg/kg): 90 min
COC(=O)C1=C(C)NC(C)=C(C(=O)OCCC2COC(C)(C)O2)C1c1cccc([N+](=O)[O-])c1 (racemic) [Example 4, methyl 2-[(2,2-dimethyl-1,3-dioxolan-4-yl)ethyl]1,4-dihydro-2,6-dimethyl-4-(3-nitrophenyl)pyridine-3,5-dicarboxylate] | 32 nM |  |  |  |  | 
COC(=O)C1=C(C)NC(C)=C(C(=O)OCC2COC(c3ccccc3)O2)C1c1cccc([N+](=O)[O-])c1 (centres unmarked) [Example 14] | > 5000 nM | 19.9% | -58.4 ± 32.9% |  | > 24 h | duration of the effect, Heart rate ([1]; 30 mg/kg): > 24 h
COC(=O)C1=C(C)NC(C)=C(C(=O)OCC2COC(C(F)(F)F)(C(F)(F)F)O2)C1c1cccc([N+](=O)[O-])c1 (centres unmarked) [Example 13] | > 5000 nM | 25% |  |  | > 24 h | 
COC(=O)C1=C(C)NC(C)=C(C(=O)OCC2(C)OCCO2)C1c1cccc([N+](=O)[O-])c1 (centres unmarked) [CP 1, methyl 2,2ethylenedioxypropyl 2,6dimethyl-4-(3-nitrophenyl)-1,4-dihydropyridine-3,5-dicarboxylate, reference compound] | 250 nM | 0% | -11.6 ± 6% |  | 0 h | 
COC(=O)C1=C(C)NC(C)=C(C(=O)OCC2COCO2)C1c1cccc([N+](=O)[O-])c1 (racemic) [Example 3] | 43 nM |  |  |  |  | 
COC(=O)C1=C(C)NC(C)=C(C(=O)OCC2COC(C)(C)O2)C1c1cccc([N+](=O)[O-])c1 (centres unmarked) [Example 1, methyl (2,2-dimethyl-1,3-dioxolan-4-yl)methyl 1,4-dihydro-2,6-dimethyl-4-(3-nitrophenyl)pyridine-3,5-dicarboxylate] | 31 nM | 16.4% | -28.4 ± 7.3% | 22.5 mg/kg |  | % variation D.P. (diastolic pressure) (anesthetized dogs; 0.5 mg/kg): -42.6%; % variation O. Aor. (output of the aorta) (anesthetized dogs; 0.5 mg/kg): +124%; % variation O. Cor. (output of left coronary artery) (anesthetized dogs; 0.5 mg/kg): +73.6%; % variation O. Fem. (output of right femoral artery) (anesthetized dogs; 0.5 mg/kg): +114%; duration of the effect, D.P. (diastolic pressure) (anesthetized dogs; 0.5 mg/kg): 120 min; duration of the effect, O. Aor. (output of the aorta) (anesthetized dogs; 0.5 mg/kg): 120 min; duration of the effect, O. Fem. (output of right femoral artery) (anesthetized dogs; 0.5 mg/kg): 270 min; % variation T.P.R. (total peripheral resistances) (anesthetized dogs; 0.5 mg/kg): -65%; duration of the effect, T.P.R. (total peripheral resistances) (anesthetized dogs; 0.5 mg/kg): 300 min; cardiac, femoral and coronary outputs (in words) (anesthetized dogs; [6]): increased for a longer time and to a greater extent; drop in total peripheral resistances (in words) (anesthetized dogs; [6]): greater drop in total peripheral resistances than nicardipine and nifedipine; duration of drop in total peripheral resistances (in words) (anesthetized dogs; [6]): considerably longer

Reference: patent publication US4710505A, “Asymmetric heterocyclic ester derivatives of 1,4-dihydropyridine-3,5-dicarboxylic acids” (Societe de Recherches Industrielles (S.O.R.I.), priority 1985, dated 1987)
